Assays:
Format in all cases: in vivo
[1] = test system: sedge, umbrella (small-flower umbrella sedge, Cyperus difformis); test: Test B flooded paddy test; conditions: Cyperus difformis, 250 g ai/ha, Flood; 0 to 100 scale where 0 is no effect and 100 is complete control; read-out: Sedge, Umbrella plant response rating
How it was run: (§1)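 Compound goes directly into floodwater once pots are flooded 3 cm above soil, targeting plants at two leaves; the water depth is then held for the test duration. Plants sit 13–15 d in a greenhouse and are rated visually, 100 denoting complete control.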

[2] = test system: rice (Oryra sativa); test: Test B flooded paddy test; conditions: Oryza sativa, 250 g ai/ha, Flood; 0 to 100 scale where 0 is no effect and 100 is complete control; read-out: Rice plant response rating
How it was run: as §1

[3] = test system: barnyardgrass (Echinochloa crus-galli); test: Test B flooded paddy test; conditions: Echinochloa crus-galli, 250 g ai/ha, Flood; 0 to 100 scale where 0 is no effect and 100 is complete control; read-out: Barnyardgrass plant response rating
How it was run: as §1

[4] = test system: ducksalad (Heteranthera limosa); test: Test B flooded paddy test; conditions: Heteranthera limosa, 250 g ai/ha, Flood; 0 to 100 scale where 0 is no effect and 100 is complete control; read-out: Ducksalad plant response rating
How it was run: as §1

[5] = test system: wheat (Triticum aestivum); test: Test A postemergence; conditions: Triticum aestivum, post-emergence, 240 h, postemergence
How it was run: (§2)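 Visual injury, scored on a 0–100 scale relative to untreated controls, was recorded about 10 d after application. Treatments were a preemergence soil spray over planted seeds or a postemergence spray on plants at the one- to two-leaf stage, 2 to 10 cm tall, all in loam soil–sand blend in the greenhouse.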

[6] = test system: Galium (catchweed bedstraw, Galium aparine); test: Test A postemergence; conditions: Galium, post-emergence, 240 h, postemergence
How it was run: as §2

[7] = test system: giant foxtail (Setaria faberii); test: Test A postemergence; conditions: Setaria faberi, post-emergence, 240 h, postemergence
How it was run: as §2

[8] = test system: Kochia (Kochia scoparia); test: Test A postemergence; conditions: Bassia scoparia, post-emergence, 240 h, postemergence
How it was run: as §2

[9] = test system: pigweed (Amaranthus retroflexus); test: Test A postemergence; conditions: Amaranthus retroflexus, post-emergence, 240 h, postemergence
How it was run: as §2

[10] = test system: barnyardgrass (Echinochloa crus-galli); test: Test A preemergence; conditions: Echinochloa crus-galli, pre-emergence, 240 h, preemergence, 0 to 100 scale where 0 is no effect and 100 is complete control, read-out: Barnyardgrass plant response rating
How it was run: as §2

[11] = test system: ryegrass, Italian (Italian ryegrass, Lolium multiflorum); test: Test A preemergence; conditions: Lolium multiflorum, pre-emergence, 240 h, preemergence, 0 to 100 scale where 0 is no effect and 100 is complete control, read-out: Ryegrass, Italian plant response rating
How it was run: as §2

[12] = test system: giant foxtail (Setaria faberii); test: Test A preemergence; conditions: Setaria faberi, pre-emergence, 240 h, preemergence, 0 to 100 scale where 0 is no effect and 100 is complete control, read-out: Foxtail, Giant plant response rating
How it was run: as §2

[13] = test system: Kochia (Kochia scoparia); test: Test A preemergence; conditions: Bassia scoparia, pre-emergence, 240 h, preemergence, 0 to 100 scale where 0 is no effect and 100 is complete control, read-out: Kochia plant response rating
How it was run: as §2

[14] = test system: pigweed (Amaranthus retroflexus); test: Test A preemergence; conditions: Amaranthus retroflexus, pre-emergence, 240 h, preemergence, 0 to 100 scale where 0 is no effect and 100 is complete control, read-out: Pigweed plant response rating
[15] = test system: ragweed (common ragweed, Ambrosia elatior); test: Test A preemergence; conditions: Ambrosia artemisiifolia, pre-emergence, 240 h, preemergence, 0 to 100 scale where 0 is no effect and 100 is complete control, read-out: Ragweed plant response rating
How it was run: as §2

[16] = 125 g ai/ha, visual injury rating, approximately 10 d

Structure (SMILES): CN1CC[C@H](c2ccc(C(F)(F)F)cc2)[C@@H](C(=O)Nc2cccc(Cl)c2F)C1=O [Compound 1228]
- pest or weed control at 250 g/ha [1]: 0%
- pest or weed control at 250 g/ha [2]: 30%
- pest or weed control at 250 g/ha [3]: 50%
- pest or weed control at 250 g/ha [4]: 100%
- plant injury at 125 g/ha ([5]; 125 g ai/ha, visual injury vs untreated controls after approx. 10 d, 0 = no effect, 100 = complete control, read-out: Wheat plant response rating (0 to 100 scale)): 0%
- plant injury at 500 g/ha ([5]; 500 g ai/ha, 0 to 100 scale, 0 is no effect, 100 is complete control, read-out: Wheat plant response rating): 30%
- pest or weed control at 125 g/ha ([6]; 125 g ai/ha, visual injury vs untreated controls after approx. 10 d, 0 = no effect, 100 = complete control, read-out: Galium plant response rating (0 to 100 scale)): 20%
- pest or weed control at 500 g/ha ([6]; 500 g ai/ha, 0 to 100 scale, 0 is no effect, 100 is complete control, read-out: Galium plant response rating): 60%
- pest or weed control at 125 g/ha ([7]; 125 g ai/ha, visual injury vs untreated controls after approx. 10 d, 0 = no effect, 100 = complete control, read-out: Foxtail, Giant plant response rating (0 to 100 scale)): 80%
- pest or weed control at 500 g/ha ([7]; 500 g ai/ha, 0 to 100 scale, 0 is no effect, 100 is complete control, read-out: Foxtail, Giant plant response rating): 80%
- pest or weed control at 125 g/ha ([8]; 125 g ai/ha, visual injury vs untreated controls after approx. 10 d, 0 = no effect, 100 = complete control, read-out: Kochia plant response rating (0 to 100 scale)): 60%
- pest or weed control at 500 g/ha ([8]; 500 g ai/ha, 0 to 100 scale, 0 is no effect, 100 is complete control, read-out: Kochia plant response rating): 60%
- pest or weed control at 125 g/ha ([9]; 125 g ai/ha, visual injury vs untreated controls after approx. 10 d, 0 = no effect, 100 = complete control, read-out: Pigweed plant response rating (0 to 100 scale)): 20%
- pest or weed control at 500 g/ha ([9]; 500 g ai/ha, 0 to 100 scale, 0 is no effect, 100 is complete control, read-out: Pigweed plant response rating): 50%
- pest or weed control at 125 g/ha [10, 16]: 90%
- pest or weed control at 500 g/ha ([10]; 500 g ai/ha): 90%
- pest or weed control at 125 g/ha [11, 16]: 30%
- pest or weed control at 500 g/ha ([11]; 500 g ai/ha): 60%
- pest or weed control at 125 g/ha [12, 16]: 90%
- pest or weed control at 500 g/ha ([12]; 500 g ai/ha): 90%
- pest or weed control at 125 g/ha [13, 16]: 0%
- pest or weed control at 500 g/ha ([13]; 500 g ai/ha): 0%
- pest or weed control at 125 g/ha [14, 16]: 20%
- pest or weed control at 500 g/ha ([14]; 500 g ai/ha): 60%
- pest or weed control at 125 g/ha [15, 16]: 0%
- pest or weed control at 500 g/ha ([15]; 500 g ai/ha): 0%

— patent US12077503B2, “Substituted cyclic amides and their use as herbicides” (FMC CORPORATION, priority 2015, dated 2024)
